Results as given in patent US9868731B2, “Indole amide compound as inhibitor of necrosis” (LG CHEM, LTD., priority 2013, dated 2018).

The compounds below were run on primary hepatocytes isolated from rats (assay: Hepatocyte protective effect against doxorubicin-induced hepatocyte toxicity (WST-1 viability)). Conditions: Hepatocyte; against doxorubicin treatment; primary rat hepatocytes pretreated with compound 30 min; viability by WST-1 after 24-48 hours; concentration giving 50% of maximum protective effect.
Assay type: cell-based
Protocol: Various endogenous/exogenous attacks on cells trigger the mechanisms of cell death which is broadly classified into two types—i.e., apoptosis or necrosis. Using these cell death mechanisms, in the present experimental example, primary hepatocytes isolated from rats were treated with drugs which were clinically shown to result in serious side-effects of hepatocyte toxicity or various chemicals which cause cell death, and the compounds synthesized in the Examples were estimated for their hepatocyte protective effects, after 24-48 hours. The substances used to cause hepatocyte death include CCl4, ActD, H2O2, doxorubicin, anti-Fas Ab/Actinomycin D, acetaminophen, EtOH, CdCl2, palmitate, stearate, cyclophosphamide, terfenadine, diclofenac, simvastatin, and adefovir. Primary hepatocytes were isolated using the method of Seglen P O (Experimental Cell Research 74 (1972), pp. 450-454). Briefly, hepatocytes were isolated according to the two-step collagenase perfusion method, and dead cells were removed by low speed (500 rpm) centrifugation for 10 min using percoll gradient (Kreamer B L et al., In Vitro Cellular & Developmental Biology 22 (1986), pp. 201-211). During this step, the viability of cells was maintained 90% or above. The cells were suspended in HepatoZYME media (Gibco BRL), and the number of cells was counted. 1.5×10^4 cells in 100 μl were placed into the collagen-coated 96-well plate (BD Biocoat), and adhered on the bottom for 3-4 hours.
In order to assess the hepatocyte protective effect, the above adhered cells were pretreated with the Example compounds for 30 min. At this time, the concentration of the Example compounds was serially diluted by 2-fold or 3-fold over 5 steps starting from 30 μM, 10 μM or 1 μM depending on the experiments, and the final concentration of DMSO was adjusted to 0.2%. 30 min after the treatment by the compounds, the cells were treated by the substances deriving hepatocyte death or hepatotoxic drugs at the concentrations indicated in Table 1. After 24-48 hours, the viability of cells was determined to estimate the hepatocyte protective effects. The viability of cells was determined using the WST-1 (MK-400, […]) method by the absorbance at 440 nm. Hepatocyte protective effects of the Example compounds were represented by “EC50” which was calculated from measured values. “EC50” herein means the concentration of the compound at which 50% of maximum protective effect is observed in the experiment.

Question: How did the EC50 turn out when NCC1CCN(C(=O)c2cc3cc(Cl)cc(N(CC4CC4)CC4CC4)c3[nH]2)C1 (centres unmarked) [Example 53, (3-Aminomethyl-pyrrolidin-1-yl)-[7-(bis-cyclopropylmethyl-amino)-5-chloro-1H-indol-2-yl]-methanone] was run?
Answer: The EC50 was 710 nM.

Question: With CC(C)CCN(CCC(C)C)c1cc(Cl)cc2cc(C(=O)N3C[C@@H](CN4CCCC4)[C@H](c4ccc(F)cc4F)C3)[nH]c12 [Example 60, {7-[Bis-(3-methyl-butyl)-amino]-5-chloro-1H-indol-2-yl}-[(3R,4R)-3-(2,4-difluoro-phenyl)-4-pyrrolidin-1-ylmethyl-pyrrolidin-1-yl]-methanone] as the compound, how does the EC50 read?
Answer: The EC50 was 250 nM.

Question: How did the EC50 turn out when Cc1cc(NC2CCOCC2)c2[nH]c(C(=O)N3CC[C@H](C(=O)O)C3)cc2c1 [Example 38, (S)-1-[5-methyl-7-(tetrahydropyran-4-ylamino)-1H-indol-2-carbonyl]-pyrrolidin-3-carboxylic acid] was run?
Answer: The EC50 was 330 nM.

Question: For Cc1cc(NC2CCCC2)c2[nH]c(C(=O)N3CCNCC3)cc2c1 [Example 29, (7-Cyclopentylamino-5-methyl-1H-indol-2-yl)-piperazin-4-yl-methanone], which EC50 is on record?
Answer: The EC50 was 200 nM.

Question: How did the EC50 turn out when CC(C)CCNc1cc(Cl)cc2cc(C(=O)N3CCC(CN)C3)[nH]c12 (centres unmarked) [Example 46, (3-Aminomethyl-pyrrolidin-1-yl)-[5-chloro-7-(3-methyl-butylamino)-1H-indol-2-yl]-methanone] was run?
Answer: The EC50 was 290 nM.

Question: For O=C(Nc1cccc(CN2CCOCC2)c1)c1cc2cc(Cl)cc(NC3CCNCC3)c2[nH]1 [Example 13, 5-Chloro-7-(piperidin-4-ylamino)-1H-indol-2-carboxylic acid (3-morpholin-4-ylmethyl-phenyl)-amide], which EC50 is on record?
Answer: The EC50 was 150 nM.

Question: Which EC50 does the source give for N[C@H]1CCN(C(=O)c2cc3cc(Cl)cc(NC4CCCC4)c3[nH]2)C1 [Example 55, ((S)-3-amino-pyrrolidin-1-yl)-(5-chloro-7-cyclopentylamino-1H-indol-2-yl}-methanone] here?
Answer: Its EC50 is 430 nM.

Question: How did the EC50 turn out when CCCCCNc1cc(Cl)cc2cc(C(=O)N3CCC(CN)C3)[nH]c12 (centres unmarked) [Example 50, (3-Aminomethyl-pyrrolidin-1-yl)-(5-chloro-7-pentylamino-1H-indol-2-yl]-methanone] was run?
Answer: The EC50 was 175 nM.

Same assay, conditions: against doxorubicin treatment; primary rat hepatocytes pretreated with compound 30 min; viability by WST-1 after 24-48 hours; concentration giving 50% of maximum protective effect

Question: NCC1CCN(C(=O)c2cc3cc(Cl)cc(NC4CCCCC4)c3[nH]2)C1 (centres unmarked) [Example 51] was tested. Which EC50 did it give?
Answer: Its EC50 is 330 nM.

Question: Which EC50 does the source give for NCC1CCCN(C(=O)c2cc3cc(Cl)cc(NC4CCCC4)c3[nH]2)C1 (centres unmarked) [Example 52] here?
Answer: The EC50 was 210 nM.

Question: How did the EC50 turn out when NCC1CCN(C(=O)c2cc3cc(Cl)cc(NCCc4ccccc4)c3[nH]2)C1 (centres unmarked) [Example 49, (3-Aminomethyl-pyrrolidin-1-yl)-(5-chloro-7-penethylamino-1H-indol-2-yl]-methanone] was run?
Answer: The EC50 was 330 nM.
